According to PubChem BioAssay (NCI):
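Results reflect a 48-hour exposure of cells in 96-well plates to compound at five concentrations. At the GI50, growth is halved. TGI is the concentration that stops growth completely.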

Experiments:
Experiment in all cases: DTP human tumour cell line panel, 48 h
786-0 renal = system: 786-0 renal
BT-549 breast = system: BT-549 breast
IGROV1 ovarian = system: IGROV1 ovarian
M14 melanoma = system: M14 melanoma
RPMI-8226 leukemia = system: RPMI-8226 leukemia
SF-268 CNS = system: SF-268 CNS
SK-MEL-2 melanoma = system: SK-MEL-2 melanoma
SK-MEL-5 melanoma = system: SK-MEL-5 melanoma
SNB-75 CNS = system: SNB-75 CNS
T-47D breast = system: T-47D breast

Row | SMILES | GI50 (786-0 renal) [µM] | TGI (786-0 renal) [µM] | GI50 (BT-549 breast) [µM] | TGI (BT-549 breast) [µM] | GI50 (IGROV1 ovarian) [µM] | TGI (IGROV1 ovarian) [µM] | GI50 (M14 melanoma) [µM] | TGI (M14 melanoma) [µM] | GI50 (RPMI-8226 leukemia) [µM] | TGI (RPMI-8226 leukemia) [µM] | GI50 (SF-268 CNS) [µM] | TGI (SF-268 CNS) [µM] | GI50 (SK-MEL-2 melanoma) [µM] | TGI (SK-MEL-2 melanoma) [µM] | GI50 (SK-MEL-5 melanoma) [µM] | TGI (SK-MEL-5 melanoma) [µM] | TGI (SNB-75 CNS) [µM] | TGI (T-47D breast) [µM] | GI50 (SNB-75 CNS) [µM] | GI50 (T-47D breast) [µM]
1 | Cc1nc(-c2cccc(Nc3nc(-c4ccc(Cl)cc4)cs3)c2)cs1 | 10.9 | 21.8 | 10.7 | 21.6 | 15.9 | 32.7 | 9.72 | 19.6 | 21.3 | > 50 | 10.4 | 24.2 | 8.82 | 18.9 | 10.5 | 19.7 | – | – | – | –
2 | CN(Cc1cnc2nc(N)nc(N)c2n1)c1ccc(C(=O)NC(CCC(=O)O)C(=O)O)cc1C(F)(F)F (stereo not drawn) | – | > 100 | – | – | – | > 100 | – | > 100 | – | > 100 | – | > 100 | – | > 100 | – | > 100 | > 100 | > 100 | – | –
3 | FC(F)(F)Oc1cccc(-c2cnc3ccc(-c4ccncc4)nn23)c1 | 1.75 | > 100 | 1.42 | 8.88 | 0.502 | 5.46 | 0.769 | > 100 | 1.31 | 4.84 | 2.22 | > 100 | – | – | 1.49 | 3.23 | 5.14 | 4.26 | 1.73 | 0.571
4 | Cc1ccccc1NC(=O)C(=O)C(C#N)c1ccc(Cl)cc1 (stereo not drawn) | – | > 100 | – | – | – | > 100 | – | > 100 | – | 48.8 | – | > 100 | – | > 100 | – | > 100 | > 100 | – | – | –
5 | CN1C(=O)CC(c2cccc(C3CC(=O)N(C)C3=O)n2)C1=O (stereo not drawn) | – | > 100 | – | – | – | > 100 | – | > 100 | – | – | – | > 100 | – | > 100 | – | > 100 | > 100 | – | – | –
6 | COc1ccccc1/C=C(\C#N)c1ccccc1 | – | 42.5 | – | – | – | > 100 | – | 99.4 | – | > 100 | – | > 100 | – | 94.8 | – | 40.9 | 60 | – | – | –
7 | CN1N=CSC12C(=O)N(c1ccc(Cl)cc1)C(=O)N2c1ccc(Cl)cc1 (stereo not drawn) | – | > 100 | – | – | – | > 100 | – | > 100 | – | 7.21 | – | > 100 | – | – | – | 15.1 | 16.5 | – | – | –
8 | O=C1C(Cl)=C(Nc2cccc(Cl)c2)C(=O)N1Cc1ccccc1 | 3.85 | 16.2 | – | – | 8.15 | > 100 | 6.73 | 22.5 | 1.37 | 7.9 | 6.76 | 22.2 | 21.7 | > 100 | 6.83 | 20.3 | – | > 100 | – | 33.8
9 | NCCNc1c2c(c(NCCN)c3c(CO)c[nH]c13)C(=O)c1ccccc1C2=O | 5.21 | > 100 | 6.72 | 32 | 15 | > 100 | 25.3 | > 100 | 31.3 | > 100 | 0.795 | 6.42 | – | – | 19.9 | 69.3 | > 100 | > 100 | 24.3 | 7.59
10 | O=C(Nc1ccccc1-c1n[nH]c(=S)[nH]c1=O)C(F)(F)F | – | > 100 | – | – | – | > 100 | – | > 100 | – | – | – | > 100 | – | > 100 | – | > 100 | > 100 | – | – | –
11 | COc1ccc(C2CC(=O)c3c(O)cc(O)cc3O2)cc1O (stereo not drawn) | – | > 100 | – | – | – | > 100 | – | > 100 | – | > 100 | – | > 100 | – | > 100 | – | > 100 | > 100 | – | – | –
12 | Cc1cn(Cc2ccccc2CCO)c(=S)[nH]c1=O | – | > 100 | – | – | – | > 100 | – | > 100 | – | > 100 | – | > 100 | – | > 100 | – | > 100 | > 100 | – | – | –
13 | CC(C)(C)OC1=C(OC(C)(C)C)C(O)(c2ccccc2)C1=O (stereo not drawn) | – | > 100 | – | – | – | > 100 | – | > 100 | – | > 100 | – | > 100 | – | – | – | > 100 | > 100 | – | – | –
14 | CCCCC[C@H](O)/C=C/[C@@H]1[C@@H](C/C=C\CCCC(=O)O)[C@@H](O)C[C@H]1O | > 100 | > 100 | > 100 | > 100 | > 100 | > 100 | – | – | > 100 | > 100 | > 100 | > 100 | > 100 | > 100 | > 100 | > 100 | – | > 100 | – | > 100
